Measured values: patent US12479847B2 (DANA-FARBER CANCER INSTITUTE, INC., priority 2019, dated 2025)
Where two headings read alike, the source gives them in different places.

What was measured:
Test in all cases: KINOMEscan (ScanMAX) kinase profiling
Assay type in all cases: binding
panel of 468 kinases [1] = molecular target: T1, panel of 468 kinases (Homo sapiens, UniProt P51813); details: BMX; 1 μM; read-out: % control
T1 construct: purchased KINOMEscan (ScanMAX) service
T1 sequence (P51813 1-675): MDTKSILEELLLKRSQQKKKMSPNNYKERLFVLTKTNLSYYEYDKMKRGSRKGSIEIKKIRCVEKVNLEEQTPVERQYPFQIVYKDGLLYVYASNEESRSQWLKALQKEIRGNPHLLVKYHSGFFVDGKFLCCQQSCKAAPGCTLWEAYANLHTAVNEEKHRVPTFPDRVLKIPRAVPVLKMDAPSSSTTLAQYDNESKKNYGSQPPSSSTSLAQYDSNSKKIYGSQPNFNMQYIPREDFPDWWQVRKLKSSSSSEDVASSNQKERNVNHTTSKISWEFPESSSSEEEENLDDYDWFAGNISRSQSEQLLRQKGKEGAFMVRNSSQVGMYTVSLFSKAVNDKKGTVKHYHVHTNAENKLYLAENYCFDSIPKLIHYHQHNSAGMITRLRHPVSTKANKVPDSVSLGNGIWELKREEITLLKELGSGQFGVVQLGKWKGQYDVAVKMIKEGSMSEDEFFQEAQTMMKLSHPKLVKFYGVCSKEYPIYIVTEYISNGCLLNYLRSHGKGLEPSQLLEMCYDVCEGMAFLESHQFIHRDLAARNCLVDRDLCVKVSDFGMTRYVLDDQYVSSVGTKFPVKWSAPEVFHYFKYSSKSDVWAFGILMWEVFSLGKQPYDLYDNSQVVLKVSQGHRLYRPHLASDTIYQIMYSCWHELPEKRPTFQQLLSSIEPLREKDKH

panel of 468 kinases [2] = molecular target: T2, panel of 468 kinases (Homo sapiens, UniProt O94804); details: LOK; 1 μM; read-out: % control
T2 construct: purchased KINOMEscan (ScanMAX) service

panel of 468 kinases [3] = molecular target: T3, panel of 468 kinases (Homo sapiens, UniProt O96017); details: CHEK2; 1 μM; read-out: % control
T3 construct: purchased KINOMEscan (ScanMAX) service

panel of 468 kinases [4] = molecular target: T4, panel of 468 kinases (Homo sapiens, UniProt Q99755); details: PIP5K1A; 1 μM; read-out: % control
T4 construct: purchased KINOMEscan (ScanMAX) service

panel of 468 kinases [5] = molecular target: T5, panel of 468 kinases (Homo sapiens, UniProt P00533, G719C); details: EGFR(G719C); 1 μM; read-out: % control
T5 construct: purchased KINOMEscan (ScanMAX) service

panel of 468 kinases [6] = molecular target: T6, panel of 468 kinases (Homo sapiens, UniProt P51812); details: 1 μM, read-out: % control
T6 construct: purchased KINOMEscan (ScanMAX) service

panel of 468 kinases [7] = molecular target: T7, panel of 468 kinases (Homo sapiens, UniProt P16591); details: FER; 1 μM; read-out: % control
T7 construct: purchased KINOMEscan (ScanMAX) service

panel of 468 kinases [8] = molecular target: T8, panel of 468 kinases (Homo sapiens, UniProt O15530); details: PDPK1; 1 μM; read-out: % control
T8 construct: purchased KINOMEscan (ScanMAX) service
T8 sequence (O15530 1-556): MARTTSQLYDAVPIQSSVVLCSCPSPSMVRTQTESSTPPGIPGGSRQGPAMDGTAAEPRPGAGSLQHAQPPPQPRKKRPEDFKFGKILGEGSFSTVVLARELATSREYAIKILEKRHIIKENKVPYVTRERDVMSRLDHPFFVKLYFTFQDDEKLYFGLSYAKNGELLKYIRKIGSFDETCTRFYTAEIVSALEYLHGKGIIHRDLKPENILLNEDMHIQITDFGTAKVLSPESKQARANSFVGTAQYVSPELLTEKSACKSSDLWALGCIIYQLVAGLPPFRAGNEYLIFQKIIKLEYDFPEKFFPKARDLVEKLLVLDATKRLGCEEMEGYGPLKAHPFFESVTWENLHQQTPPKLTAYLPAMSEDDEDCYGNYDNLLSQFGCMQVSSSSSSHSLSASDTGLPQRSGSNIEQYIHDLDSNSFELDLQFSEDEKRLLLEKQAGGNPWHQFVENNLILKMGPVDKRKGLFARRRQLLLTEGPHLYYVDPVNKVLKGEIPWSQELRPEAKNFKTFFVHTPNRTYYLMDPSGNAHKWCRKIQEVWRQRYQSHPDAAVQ

panel of 468 kinases [9] = molecular target: T9, panel of 468 kinases (Homo sapiens, UniProt Q86UE8); details: TLK2; 1 μM; read-out: % control
T9 construct: purchased KINOMEscan (ScanMAX) service

panel of 468 kinases [10] = molecular target: T10, panel of 468 kinases (Homo sapiens, UniProt P53667); details: LIMK1; 1 μM; read-out: % control
T10 construct: purchased KINOMEscan (ScanMAX) service

panel of 468 kinases [11] = molecular target: T11, panel of 468 kinases (Homo sapiens, UniProt P37023); details: ACVRL1; 1 μM; read-out: % control
T11 construct: purchased KINOMEscan (ScanMAX) service

panel of 468 kinases [12] = molecular target: T12, panel of 468 kinases (Homo sapiens, UniProt P10721, V559D); details: KIT(V559D); 1 μM; read-out: % control
T12 construct: purchased KINOMEscan (ScanMAX) service

panel of 468 kinases [13] = molecular target: T13, panel of 468 kinases (Homo sapiens, UniProt Q9Y6M4); details: CSNK1G3; 1 μM; read-out: % control
T13 construct: purchased KINOMEscan (ScanMAX) service

T7 sequence (P16591 whole entry): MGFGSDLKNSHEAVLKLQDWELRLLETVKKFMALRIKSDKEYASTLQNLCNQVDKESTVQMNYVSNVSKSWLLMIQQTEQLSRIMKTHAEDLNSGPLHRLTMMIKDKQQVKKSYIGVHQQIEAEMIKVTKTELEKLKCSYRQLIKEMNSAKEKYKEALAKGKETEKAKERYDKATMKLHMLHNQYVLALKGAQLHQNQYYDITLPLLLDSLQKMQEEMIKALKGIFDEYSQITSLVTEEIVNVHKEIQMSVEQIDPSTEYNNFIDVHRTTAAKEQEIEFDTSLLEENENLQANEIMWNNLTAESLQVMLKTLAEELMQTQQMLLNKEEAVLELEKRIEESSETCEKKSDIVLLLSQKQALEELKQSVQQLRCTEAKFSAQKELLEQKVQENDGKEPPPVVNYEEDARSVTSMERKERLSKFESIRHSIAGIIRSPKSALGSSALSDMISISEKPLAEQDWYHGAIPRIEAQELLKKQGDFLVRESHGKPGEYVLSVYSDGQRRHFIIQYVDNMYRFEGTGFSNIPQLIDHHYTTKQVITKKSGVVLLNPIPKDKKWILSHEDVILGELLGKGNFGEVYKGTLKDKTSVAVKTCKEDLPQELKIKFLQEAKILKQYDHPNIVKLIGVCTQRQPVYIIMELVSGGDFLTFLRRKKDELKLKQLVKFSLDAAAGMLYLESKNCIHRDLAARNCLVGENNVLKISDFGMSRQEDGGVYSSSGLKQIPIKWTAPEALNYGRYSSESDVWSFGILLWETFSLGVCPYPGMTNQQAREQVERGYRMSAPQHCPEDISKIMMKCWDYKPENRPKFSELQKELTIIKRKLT
T4 sequence (Q99755 whole entry): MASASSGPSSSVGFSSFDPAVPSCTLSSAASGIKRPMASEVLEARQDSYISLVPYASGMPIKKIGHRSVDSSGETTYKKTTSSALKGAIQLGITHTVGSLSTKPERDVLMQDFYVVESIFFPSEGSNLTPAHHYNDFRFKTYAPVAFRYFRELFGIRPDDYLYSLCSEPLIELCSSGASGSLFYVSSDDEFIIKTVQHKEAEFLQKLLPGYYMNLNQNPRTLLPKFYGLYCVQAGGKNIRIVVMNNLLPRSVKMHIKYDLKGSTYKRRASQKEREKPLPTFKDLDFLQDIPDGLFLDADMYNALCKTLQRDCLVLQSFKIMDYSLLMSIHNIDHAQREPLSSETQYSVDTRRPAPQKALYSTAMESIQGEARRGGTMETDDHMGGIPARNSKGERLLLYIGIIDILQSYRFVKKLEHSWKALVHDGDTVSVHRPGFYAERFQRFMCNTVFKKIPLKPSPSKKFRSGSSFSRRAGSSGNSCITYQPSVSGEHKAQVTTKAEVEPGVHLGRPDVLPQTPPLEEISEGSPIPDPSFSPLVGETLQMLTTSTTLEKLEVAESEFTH
T11 sequence (P37023 22-503): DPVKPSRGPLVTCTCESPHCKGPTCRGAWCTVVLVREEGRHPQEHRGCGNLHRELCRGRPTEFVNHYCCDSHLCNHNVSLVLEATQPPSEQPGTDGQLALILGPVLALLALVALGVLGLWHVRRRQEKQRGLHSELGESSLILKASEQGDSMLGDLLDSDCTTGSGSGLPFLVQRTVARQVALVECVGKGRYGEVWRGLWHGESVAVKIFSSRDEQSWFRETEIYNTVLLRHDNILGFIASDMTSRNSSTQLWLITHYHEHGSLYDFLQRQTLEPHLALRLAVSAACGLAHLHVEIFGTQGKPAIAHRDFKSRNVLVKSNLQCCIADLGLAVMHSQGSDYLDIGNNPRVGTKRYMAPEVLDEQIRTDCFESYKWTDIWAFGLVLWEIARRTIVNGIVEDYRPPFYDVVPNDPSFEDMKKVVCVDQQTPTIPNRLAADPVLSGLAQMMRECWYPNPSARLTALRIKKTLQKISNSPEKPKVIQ
T6 sequence (P51812 whole entry): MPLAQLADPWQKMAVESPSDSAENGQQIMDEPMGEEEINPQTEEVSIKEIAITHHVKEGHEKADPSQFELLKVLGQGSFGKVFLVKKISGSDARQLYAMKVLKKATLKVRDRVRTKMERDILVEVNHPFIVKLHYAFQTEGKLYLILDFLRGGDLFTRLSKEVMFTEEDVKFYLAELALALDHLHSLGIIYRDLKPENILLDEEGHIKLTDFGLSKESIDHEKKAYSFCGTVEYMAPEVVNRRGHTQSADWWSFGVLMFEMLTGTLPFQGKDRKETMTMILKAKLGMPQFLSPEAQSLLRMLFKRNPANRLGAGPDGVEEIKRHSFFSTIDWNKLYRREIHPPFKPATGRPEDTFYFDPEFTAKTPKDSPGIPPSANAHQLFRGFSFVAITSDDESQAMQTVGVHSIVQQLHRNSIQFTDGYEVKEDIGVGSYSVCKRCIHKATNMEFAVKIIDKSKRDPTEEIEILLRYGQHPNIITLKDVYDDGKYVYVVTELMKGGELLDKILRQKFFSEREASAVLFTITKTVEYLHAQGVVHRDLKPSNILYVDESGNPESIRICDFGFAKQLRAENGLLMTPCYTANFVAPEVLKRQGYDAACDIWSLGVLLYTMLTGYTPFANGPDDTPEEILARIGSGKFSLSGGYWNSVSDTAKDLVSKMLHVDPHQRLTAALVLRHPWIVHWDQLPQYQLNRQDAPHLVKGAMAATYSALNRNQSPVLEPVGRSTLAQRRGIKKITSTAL
T3 sequence (O96017 whole entry): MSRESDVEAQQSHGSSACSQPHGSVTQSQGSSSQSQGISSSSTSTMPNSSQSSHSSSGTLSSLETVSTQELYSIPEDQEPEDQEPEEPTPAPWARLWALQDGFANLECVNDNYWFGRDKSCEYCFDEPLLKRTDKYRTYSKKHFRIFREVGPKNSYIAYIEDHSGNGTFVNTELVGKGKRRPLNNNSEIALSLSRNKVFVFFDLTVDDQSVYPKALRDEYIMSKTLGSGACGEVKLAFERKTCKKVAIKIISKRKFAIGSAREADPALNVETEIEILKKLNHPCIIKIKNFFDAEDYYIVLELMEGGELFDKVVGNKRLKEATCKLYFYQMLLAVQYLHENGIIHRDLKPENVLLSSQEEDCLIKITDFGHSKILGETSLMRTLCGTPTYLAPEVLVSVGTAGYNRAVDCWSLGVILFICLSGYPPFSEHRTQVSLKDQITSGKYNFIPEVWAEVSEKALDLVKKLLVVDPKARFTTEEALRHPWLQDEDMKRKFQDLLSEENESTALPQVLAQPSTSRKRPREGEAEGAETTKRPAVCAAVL
T12 sequence (P10721 26-976 V559D): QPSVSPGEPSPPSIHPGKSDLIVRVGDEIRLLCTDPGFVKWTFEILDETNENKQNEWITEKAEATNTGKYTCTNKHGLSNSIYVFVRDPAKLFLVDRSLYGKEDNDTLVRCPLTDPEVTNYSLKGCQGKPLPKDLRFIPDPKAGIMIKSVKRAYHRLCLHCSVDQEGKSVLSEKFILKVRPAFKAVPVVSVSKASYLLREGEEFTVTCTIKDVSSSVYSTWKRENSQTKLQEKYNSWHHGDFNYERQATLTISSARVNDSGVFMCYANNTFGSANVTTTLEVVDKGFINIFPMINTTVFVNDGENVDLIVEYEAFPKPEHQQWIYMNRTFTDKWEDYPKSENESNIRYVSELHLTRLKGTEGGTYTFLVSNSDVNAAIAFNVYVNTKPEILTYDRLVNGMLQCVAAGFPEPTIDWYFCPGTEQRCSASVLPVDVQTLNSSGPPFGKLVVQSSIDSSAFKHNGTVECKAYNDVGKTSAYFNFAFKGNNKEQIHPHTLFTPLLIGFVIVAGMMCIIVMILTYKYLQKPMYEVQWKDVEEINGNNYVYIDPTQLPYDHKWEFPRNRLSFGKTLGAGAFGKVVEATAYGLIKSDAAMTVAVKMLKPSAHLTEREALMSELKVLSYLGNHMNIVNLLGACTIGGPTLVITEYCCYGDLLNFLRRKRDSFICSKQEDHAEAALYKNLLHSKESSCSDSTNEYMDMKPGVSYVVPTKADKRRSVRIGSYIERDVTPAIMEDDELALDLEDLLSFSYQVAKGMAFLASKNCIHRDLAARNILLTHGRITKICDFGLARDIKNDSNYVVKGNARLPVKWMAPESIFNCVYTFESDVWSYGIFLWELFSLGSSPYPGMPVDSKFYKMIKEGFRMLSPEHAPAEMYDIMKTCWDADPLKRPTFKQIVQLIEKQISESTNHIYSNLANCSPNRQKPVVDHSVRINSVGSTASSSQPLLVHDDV
T10 sequence (P53667 whole entry): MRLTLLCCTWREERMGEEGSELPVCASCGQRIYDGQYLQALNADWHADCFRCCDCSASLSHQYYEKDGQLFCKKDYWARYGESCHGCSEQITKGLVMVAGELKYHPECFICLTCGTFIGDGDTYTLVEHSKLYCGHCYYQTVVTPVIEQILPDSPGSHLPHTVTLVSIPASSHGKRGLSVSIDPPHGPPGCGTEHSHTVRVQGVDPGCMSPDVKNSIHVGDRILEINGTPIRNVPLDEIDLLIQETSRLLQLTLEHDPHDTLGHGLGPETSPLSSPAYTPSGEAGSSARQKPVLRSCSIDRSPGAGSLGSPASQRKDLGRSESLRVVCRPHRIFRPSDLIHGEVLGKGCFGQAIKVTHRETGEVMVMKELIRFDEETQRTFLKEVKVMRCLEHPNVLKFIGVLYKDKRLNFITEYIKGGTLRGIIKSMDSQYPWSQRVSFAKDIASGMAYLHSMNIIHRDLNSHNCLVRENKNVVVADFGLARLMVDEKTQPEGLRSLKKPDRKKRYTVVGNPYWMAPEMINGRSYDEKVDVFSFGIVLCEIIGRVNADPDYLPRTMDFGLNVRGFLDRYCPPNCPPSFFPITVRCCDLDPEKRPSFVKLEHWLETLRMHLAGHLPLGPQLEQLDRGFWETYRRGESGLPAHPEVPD

Row | SMILES | remaining binding at 1 µM (panel of 468 kinases [1]) [%] | remaining binding at 1 µM (panel of 468 kinases [2]) [%] | remaining binding at 1 µM (panel of 468 kinases [3]) [%] | remaining binding at 1 µM (panel of 468 kinases [4]) [%] | remaining binding at 1 µM (panel of 468 kinases [5]) [%] | remaining binding at 1 µM (panel of 468 kinases [6]; RSK2(Kin.Dom.1-N-terminal)) [%] | remaining binding at 1 µM (panel of 468 kinases [6]; RSK2(Kin.Dom.2-C-terminal)) [%] | remaining binding at 1 µM (panel of 468 kinases [7]) [%] | remaining binding at 1 µM (panel of 468 kinases [8]) [%] | remaining binding at 1 µM (panel of 468 kinases [9]) [%] | remaining binding at 1 µM (panel of 468 kinases [10]) [%] | remaining binding at 1 µM (panel of 468 kinases [11]) [%] | remaining binding at 1 µM (panel of 468 kinases [12]) [%] | remaining binding at 1 µM (panel of 468 kinases [13]) [%]
1 | CNc1nc(Nc2ccc(S(=O)(=O)N3CCC(N4CCOCC4)CC3)cc2OC)nc2[nH]cc(Cl)c12 [Compound 12, 5-chloro-N2-(2-methoxy-4-((4-morpholinopiperidin-1-yl)sulfonyl)phenyl)-N4-methyl-7H-pyrrolo[2,3-d]pyrimidine-2,4-diamine] | 97 | 94 | 1.8 | 100 | 97 | 88 | 28 | 44 | 95 | 100 | 100 | 100 | 80 | 96
2 | CNc1nc(Nc2ccc(P3(=O)CCN(C4CCOCC4)CC3)cc2OC)nc2[nH]cc(Cl)c12 [Compound 77, 4-(4-((5-chloro-4-(methylamino)-7H-pyrrolo[2,3-d]pyrimidin-2-yl)amino)-3-methoxyphenyl)-1-(tetrahydro-2H-pyran-4-yl)-1,4-azaphosphinane 4-oxide] | 99 | 90 | 0.7 | 100 | 99 | 70 | 34 | 20 | 100 | 100 | 100 | 100 | 90 | 89
3 | CNc1nc(Nc2ccc(C(=O)N3CCC(N4CCOCC4)CC3)c3c2OCO3)nc2[nH]cc(Cl)c12 [Compound 75, (7-((5-chloro-4-(methylamino)-7H-pyrrolo[2,3-d]pyrimidin-2-yl)amino)benzo[d][1,3]dioxol-4-yl)(4-morpholinopiperidin-1-yl)methanone] | 97 | 96 | 0.95 | 34 | 100 | 71 | 31 | 56 | 98 | 100 | 100 | 100 | 39 | 18
